Reference: patent US20150148377A1, “Quinoline Derivatives” (NOVARTIS AG, priority 2011, published 2015)

Key:
[1] = biological target: T1, human phosphoinositide-3 kinase (PI3K) delta (Homo sapiens, UniProt O00329); assay: PI3K-mediated Akt 1/2 (S473) phosphorylation in Rat-1 cells (Cell PI3Kδ); type: cell-based; settings: Rat-1 cells overexpressing myristoylated human PI3K delta; p-Akt (Ser473)
T1 construct: myristoylation signal (myristoylated form); expressed in transfected cells
Method: 2.1 Phosphoinositide-3 kinase (PI3K)-mediated Akt 1/2 (S473) phosphorylation in Rat-1 cells
Rat-1 cells stably overexpressing a myristoylated form of the catalytic subunit of human phosphoinositide-3 kinase (PI3K) alpha, beta or delta were plated in 384-well plates at a density of 7500 (PI3K alpha), 6200 (PI3K beta), or 4000 (PI3K delta) cells in 30 ul complete growth medium (Dulbecco's modified Eagle's medium (DMEM high glucose) supplemented with 10% (v/v) fetal bovine serum, 1% (v/v) MEM non essential amino acids, 10 mM HEPES, 2 mM L-glutamine, 10 μg/mL puromycin and 1% (v/v) Penicillin/Streptomycin) and were incubated at […]/5% CO2/95% humidity for 24 h. Compounds were diluted in 384-well compound plates to obtain 8-point serial dilutions for 40 test compounds in 90% DMSO, as well as 4 reference compounds plus 16 high controls and 16 low (inhibited) controls. Predilution plates were prepared by dispensing pipetting 250 nl of compound solutions into 384-well polypropylen plates using a Hummingwell nanoliter dispensor. Compounds were prediluted by the addition of 49.75 ul complete growth medium. 10 ul of prediluted compound solution were transferred to the cell plate using a 384-well pipettor, resulting in a final DMSO concentration of 0.11%. Cells were incubated for 1 h at […]/5% CO2/95% humidity. The supernatant was removed, the cells were lysed in 20 ul of lysis buffer for AlphaScreen® SureFire® detection.
For detection of p-AKT(Ser473), the SureFire® p-Akt 1/2 (Ser473) Assay Kit (PerkinElmer, U.S.A) was used. 5 ul of cell lysate was transferred to 384-well low volume Proxiplates for detection using a 384-well pipettor. Addition of AlphaScreen® SureFire® reagents was done according to the manufacturer's protocol. First, 5 ul of reaction buffer plus activation buffer mix containing AlphaScreen® acceptor beads was added, the plate was sealed, and incubated on a plate shaker for 2 hours at room temperature. Second, 2 ul of dilution buffer containing AlphaScreen® donor beads was added, and the plate was incubated on plate shaker as above for a further 2 hours. The plate was read on an AlphaScreen® compatible plate reader, using standard AlphaScreen® settings.

PI3K alpha = biological target: T2, PI3K alpha (Homo sapiens, UniProt P42336); assay: Enzymatic PI3K alpha isoform inhibition (lipid kinase activity, Kinase-Glo); type: biochemical; settings: enzymatic assay
T2 construct: His tag (C); made in house; host or cells: baculovirus; Tn5 (Trichoplusia ni) or TiniPro insect cells
In short: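 Lipid kinase reaction with 10 nM PI3Kα, 1 μM ATP and 10 μg/mL phosphatidylinositol in pH 7.5 Tris with MgCl2, NaCl, CHAPS and DTT, run 60 min at room temperature. Remaining ATP read by Kinase-Glo luminescence. IC50 from 8-point 4-parameter logistic fits.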

T2 sequence (P42336 with tags, fused parts or gaps limits assumed): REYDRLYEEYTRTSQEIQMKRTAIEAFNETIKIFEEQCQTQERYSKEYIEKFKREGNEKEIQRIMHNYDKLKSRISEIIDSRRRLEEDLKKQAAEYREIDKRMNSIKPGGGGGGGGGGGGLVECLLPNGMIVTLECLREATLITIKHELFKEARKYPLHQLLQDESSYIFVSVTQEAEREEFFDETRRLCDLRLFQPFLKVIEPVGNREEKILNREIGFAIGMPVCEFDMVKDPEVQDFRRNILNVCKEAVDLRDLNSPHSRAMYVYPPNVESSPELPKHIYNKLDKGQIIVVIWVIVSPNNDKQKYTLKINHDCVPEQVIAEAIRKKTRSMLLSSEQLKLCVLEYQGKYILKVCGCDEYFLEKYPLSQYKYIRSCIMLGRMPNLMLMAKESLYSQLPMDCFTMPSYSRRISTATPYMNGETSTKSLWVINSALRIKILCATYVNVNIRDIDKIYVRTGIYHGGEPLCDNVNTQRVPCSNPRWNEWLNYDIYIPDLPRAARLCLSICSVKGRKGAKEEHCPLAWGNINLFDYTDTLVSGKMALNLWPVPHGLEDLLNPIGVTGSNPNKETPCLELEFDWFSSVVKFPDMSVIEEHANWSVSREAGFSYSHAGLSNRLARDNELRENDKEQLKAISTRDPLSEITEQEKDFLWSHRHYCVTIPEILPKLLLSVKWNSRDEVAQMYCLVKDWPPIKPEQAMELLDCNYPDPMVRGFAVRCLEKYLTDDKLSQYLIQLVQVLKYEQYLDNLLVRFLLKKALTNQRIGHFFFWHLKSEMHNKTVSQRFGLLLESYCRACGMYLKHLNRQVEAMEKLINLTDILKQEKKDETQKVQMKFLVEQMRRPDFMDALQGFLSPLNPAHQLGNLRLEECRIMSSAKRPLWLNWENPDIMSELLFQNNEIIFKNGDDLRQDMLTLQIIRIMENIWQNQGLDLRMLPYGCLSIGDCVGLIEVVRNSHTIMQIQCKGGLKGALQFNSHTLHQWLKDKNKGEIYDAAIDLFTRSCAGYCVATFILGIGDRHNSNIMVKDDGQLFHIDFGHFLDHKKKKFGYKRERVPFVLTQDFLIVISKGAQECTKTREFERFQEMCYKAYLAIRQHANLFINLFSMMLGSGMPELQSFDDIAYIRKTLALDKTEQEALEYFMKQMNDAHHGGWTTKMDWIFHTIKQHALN
T1 sequence (O00329 whole entry): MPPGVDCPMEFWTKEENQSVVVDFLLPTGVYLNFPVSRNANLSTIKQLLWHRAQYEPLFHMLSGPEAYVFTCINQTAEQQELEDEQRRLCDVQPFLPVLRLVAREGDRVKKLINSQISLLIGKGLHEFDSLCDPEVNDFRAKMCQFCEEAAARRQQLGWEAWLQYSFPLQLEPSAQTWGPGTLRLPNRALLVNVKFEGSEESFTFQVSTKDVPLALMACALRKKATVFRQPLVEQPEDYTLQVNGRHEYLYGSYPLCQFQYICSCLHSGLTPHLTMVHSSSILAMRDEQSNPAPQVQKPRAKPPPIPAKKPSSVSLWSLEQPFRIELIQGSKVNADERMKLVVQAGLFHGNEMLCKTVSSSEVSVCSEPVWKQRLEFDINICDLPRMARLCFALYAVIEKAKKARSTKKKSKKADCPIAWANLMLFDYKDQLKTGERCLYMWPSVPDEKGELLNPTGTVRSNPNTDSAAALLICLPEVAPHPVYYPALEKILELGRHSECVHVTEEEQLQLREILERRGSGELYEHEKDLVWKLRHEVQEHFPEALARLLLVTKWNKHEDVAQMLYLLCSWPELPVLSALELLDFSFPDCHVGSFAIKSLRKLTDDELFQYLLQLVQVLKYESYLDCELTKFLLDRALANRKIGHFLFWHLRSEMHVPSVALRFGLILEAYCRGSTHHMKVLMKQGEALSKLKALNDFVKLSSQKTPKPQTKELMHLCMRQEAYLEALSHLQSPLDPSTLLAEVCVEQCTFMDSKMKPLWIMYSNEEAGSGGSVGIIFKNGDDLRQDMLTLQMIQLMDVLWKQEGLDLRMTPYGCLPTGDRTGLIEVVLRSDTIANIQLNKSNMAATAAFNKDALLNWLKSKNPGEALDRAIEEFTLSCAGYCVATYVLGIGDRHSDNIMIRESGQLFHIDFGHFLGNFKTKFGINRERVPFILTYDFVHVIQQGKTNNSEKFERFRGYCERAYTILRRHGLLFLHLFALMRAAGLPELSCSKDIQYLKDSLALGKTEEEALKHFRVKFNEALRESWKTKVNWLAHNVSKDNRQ
T1 sequence (Q63787 whole entry partner): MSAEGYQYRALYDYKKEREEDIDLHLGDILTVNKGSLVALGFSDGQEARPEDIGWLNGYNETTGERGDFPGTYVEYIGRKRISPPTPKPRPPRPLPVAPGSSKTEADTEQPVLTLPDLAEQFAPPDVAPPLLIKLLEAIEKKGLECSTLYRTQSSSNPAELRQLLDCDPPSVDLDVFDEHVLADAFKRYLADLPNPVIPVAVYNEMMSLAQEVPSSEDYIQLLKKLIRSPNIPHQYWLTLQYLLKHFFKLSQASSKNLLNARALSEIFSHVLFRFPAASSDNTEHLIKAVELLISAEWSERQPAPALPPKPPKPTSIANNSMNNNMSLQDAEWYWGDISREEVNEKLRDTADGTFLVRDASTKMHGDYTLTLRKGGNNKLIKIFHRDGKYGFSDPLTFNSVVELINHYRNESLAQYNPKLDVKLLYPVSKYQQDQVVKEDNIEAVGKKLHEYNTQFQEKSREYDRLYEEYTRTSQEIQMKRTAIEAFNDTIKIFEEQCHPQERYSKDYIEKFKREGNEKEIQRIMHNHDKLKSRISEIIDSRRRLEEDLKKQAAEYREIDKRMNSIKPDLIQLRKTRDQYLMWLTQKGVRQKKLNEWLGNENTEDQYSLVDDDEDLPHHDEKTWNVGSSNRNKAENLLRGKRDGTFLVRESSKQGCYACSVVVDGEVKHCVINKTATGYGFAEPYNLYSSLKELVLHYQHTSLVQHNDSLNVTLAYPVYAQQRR

Row | SMILES | IC50 [1] [nM] | IC50 (PI3K alpha) [nM]
1 | COc1ncc(-c2ccnc3ccc(O[C@H]4CCN(C(=O)C5CCS(=O)(=O)CC5)C4)cc23)cc1Cl [Example A1, {(S)-3-[4-(5-Chloro-6-methoxy-pyridin-3-yl)-quinolin-6-yloxy]-pyrrolidin-1-yl}-(1,1-dioxo-hexahydro-1lambda*6*-thiopyran-4-yl)-methanone] | 32 | 77
2 | COc1ncc(-c2ccnc3ccc(O[C@H]4CCN(C(=O)C5CCS(=O)(=O)CC5)C4)cc23)cc1C(F)F [Example A6, {(S)-3-[4-(5-Difluoromethyl-6-methoxy-pyridin-3-yl)-quinolin-6-yloxy]-pyrrolidin-1-yl}-(1,1-dioxo-hexahydro-1lambda*6*-thiopyran-4-yl)-methanone] | 78 | 53
3 | COc1ncc(-c2ccnc3ccc(O[C@H]4CCN(C(=O)[C@@H]5CCN(C(C)=O)C5)C4)cc23)cc1C [Example A10, 1-((R)-3-{(S)-3-[4-(6-Methoxy-5-methyl-pyridin-3-yl)-quinolin-6-yloxy]-pyrrolidine-1-carbonyl}-pyrrolidin-1-yl)-ethanone] | 16 | 1360
4 | COc1ncc(-c2ccnc3ccc(O[C@H]4CCN(C(=O)C5CCS(=O)(=O)CC5)C4)cc23)cc1C [Example A15, (1,1-Dioxo-hexahydro-1lambda*6*-thiopyran-4-yl)-{(S)-3-[4-(6-methoxy-5-methyl-pyridin-3-yl)-quinolin-6-yloxy]-pyrrolidin-1-yl}-methanone] | 52 | 186
5 | COc1ncc(-c2ccnc3ccc(O[C@H]4CCN(C(=O)[C@@H]5CCN(C(C)=O)C5)C4)cc23)cc1C(F)F [Example A24, 1-((R)-3-{(S)-3-[4-(5-Difluoromethyl-6-methoxy-pyridin-3-yl)-quinolin-6-yloxy]-pyrrolidine-1-carbonyl}-pyrrolidin-1-yl)-ethanone] | 14 | 67
6 | CCC(=O)N1CC[C@H](Oc2ccc3nccc(-c4cnc(S(C)(=O)=O)c(C)c4)c3c2)C1 [Example A25, 1-{(S)-3-[4-(6-Methanesulfonyl-5-methyl-pyridin-3-yl)-quinolin-6-yloxy]-pyrrolidin-1-yl}-propan-1-one] | 260 | 821
7 | COc1ncc(-c2ccnc3ccc(O[C@H]4CCN(C(=O)[C@@H]5CCN(C(C)=O)C5)C4)c(C)c23)cc1C(F)F [Example B1, 1-((R)-3-{(S)-3-[4-(5-Difluoromethyl-6-methoxy-pyridin-3-yl)-5-methylquinolin-6-yloxy]-pyrrolidine-1-carbonyl}-pyrrolidin-1-yl)-ethanone] | 14 | 63
8 | COc1ncc(-c2ccnc3ccc(O[C@H]4CCN(C(=O)C5CCS(=O)(=O)CC5)C4)c(C)c23)cc1C [Example B3, (1,1-Dioxo-hexahydro-1lambda*6*-thiopyran-4-yl)-{(S)-3-[4-(6-methoxy-5-methyl-pyridin-3-yl)-5-methyl-quinolin-6-yloxy]-pyrrolidin-1-yl}-methanone] | 105 | 498
9 | COc1ncc(-c2ccnc3cc(F)c(O[C@H]4CCN(C(=O)C5CCS(=O)(=O)CC5)C4)cc23)cc1C [Example C1, (1,1-Dioxo-hexahydro-1lambda*6*-thiopyran-4-yl)-{(S)-3-[7-fluoro-4-(6-methoxy-5-methyl-pyridin-3-yl)-quinolin-6-yloxy]-pyrrolidin-1-yl}-methanone] | 246 | 3110
10 | Cc1cc(-c2ccnc3cc(F)c(O[C@H]4CCN(C(=O)C5CCOCC5)C4)cc23)cnc1S(C)(=O)=O [Example C2, {(S)-3-[7-Fluoro-4-(6-methanesulfonyl-5-methyl-pyridin-3-yl)-quinolin-6-yloxy]-pyrrolidin-1-yl}-(tetrahydro-pyran-4-yl)-methanone] | 116 | 5680
